Measurements: US20090022806A1, “Nanoparticle and polymer formulations for thyroid hormone analogs, antagonists and formulations and uses thereof” (priority 2006, published 2009)

Assays:
[1] = system: human dermal fibroblast cells; assay: In vitro 3D wound healing assay of human dermal fibroblast cells; assay type: cell-based; settings: T4 between 0.1 μM and 1.0 μM
Experimental: Step 1: Prepare contracted collagen gels: • 1) Coat 24-well plate with 350 ul 2% BSA at RT for 2 hr, • 2) 80% confluent NHDF (normal human dermal fibroblast cells, Passage 5-9) are trypsinized and neutralized with growth medium, centrifuge and wash once with PBS • 3) Prepare collagen-cell mixture, mix gently and always on ice:
• 4) Aspire 2% BSA from 24 well plate, add collagen-cell mixture 350 ul/well, and incubate the plate in 37° C. CO2 incubator. • 5) After 1 hr, add DMEM+5% FBS medium 0.5 ml/well, use a 10 ul tip Detach the collagen gel from the edge of each well, then incubate for 2 days. The fibroblast cells will contract the collagen gel Step 2: Prepare 3D fibrin wound clot and embed wounded collagen culture • 1) Prepare fibrinogen solution (1 mg/ml) with or without testing regents. 350 ul fibrinogen solution for each well in eppendorf tube.
• 2) Cut each contracted collagen gel from middle with scissors. Wash the gel with PBS and transfer the gel to the center of each well of 24 well plate • 3) Add 1.5 ul of human thrombin (0.25 U/ul) to each tube, mix well and then add the solution around the collagen gel, the solution will polymerize in 10 mins. After 20 mins, add DMEM+1% (or 5%) FBS with or without testing agent, 450 ul/well and incubate the plate in 37° C. CO2 incubator for up to 5 days. Take pictures on each day.

[2] = system: Human dermal micro-vascular endothelial cells (HDMEC); assay: Three-dimensional human micro-vascular endothelial sprouting assay; assay type: cell-based
Experimental: In Vitro Three-Dimensional Sprout Angiogenesis of Human Dermal Micro-Vascular Endothelial Cells (HDMEC) Cultured on Micro-Carrier Beads Coated with Fibrin: Confluent HDMEC (passages 5-10) were mixed with gelatin-coated Cytodex-3 beads with a ratio of 40 cells per bead. Cells and beads (150-200 beads per well for 24-well plate) were suspended with 5 ml EBM+15% normal human serum, mixed gently every hour for first 4 hours, then left to culture in a CO2 incubator overnight. The next day, 10 ml of fresh EBM+5% HS were added, and the mixture was cultured for another 3 hours. Before experiments, the culture of EC-beads was checked; then 500 ul of PBS was added to a well of 24-well plate, and 100 ul of the EC-bead culture solution was added to the PBS. The number of beads was counted, and the concentration of EC/beads was calculated.
A fibrinogen solution (1 mg/ml) in EBM medium with or without angiogenesis factors or testing factors was prepared. For positive control, 50 ng/ml VEGF+25 ng/ml FGF2 was used. EC-beads were washed with EBM medium twice, and EC-beads were added to fibrinogen solution. The experiment was done in triplicate for each condition. The EC-beads were mixed gently in fibrinogen solution, and 2.5 ul human thrombin (0.05 U/ul) was added in 1 ml fibrinogen solution; 300 ul was immediately transferred to each well of a 24-well plate. The fibrinogen solution polymerizes in 5-10 minutes; after 20 minutes, we added EBM+20% normal human serum+10 ug/ml aprotinin. The plate was incubated in a CO2 incubator. It takes about 24-48 hours for HDMEC to invade fibrin gel and form tubes.
A micro-carrier in vitro angiogenesis assay previously designed to investigate bovine pulmonary artery endothelial cell angiogenic behavior in bovine fibrin gels [Nehls and Drenckhahn, 1995a, b] was modified for the study of human microvascular endothelial cell angiogenesis in three-dimensional ECM environments (FIGS. 1 and 2). Briefly, human fibrinogen, isolated as previously described [Feng et al, 1999], was dissolved in M199 medium at a concentration of 1 mg/ml (pH 7.4) and sterilized by filtering through a 0.22 micron filter. An isotonic 1.5 mg/ml collagen solution was prepared by mixing sterile Vitrogen 100 in 5×M199 medium and distilled water. The pH was adjusted to 7.4 by 1N NaOH. In certain experiments, growth factors and ECM proteins (such as VEGF, bFGF, PDGF-BB, serum, gelatin, and fibronectin) were added to the fibrinogen or collagen solutions. About 500 EC-beads were then added to the 1 mg/ml fibrinogen or 1.5 mg/ml collagen solutions. Subsequently, EC-beads-collagen or EC-beads-fibrinogen suspension (500 EC-beads/ml) was plated onto 24-well plates at 300 ul/well. EC-bead-collagen cultures were incubated at 37° C. to form gel. The gelling of EC-bead-fibrin cultures occurred in less than 5 minutes at room temperature after the addition of thrombin to a final concentration of 0.5 U/ml. After gelation, 1 ml of fresh assay medium (EBM supplemented with 20% normal human serum for HDMEC or EBM supplemented with 10% fetal bovine serum was added to each well. The angiogenic response was monitored visually and recorded by video image capture. Specifically, capillary sprout formation was observed and recorded with a Nikon Diaphot-TMD inverted microscope (Nikon Inc.; Melville, N.Y.), equipped with an incubator housing with a Nikon NP-2 thermostat and Sheldon #2004 carbon dioxide flow mixer. The microscope was directly interfaced to a video system consisting of a Dage-MTI CCD-72S video camera and Sony 12″ PVM-122 video monitor linked to a Macintosh G3 computer. The images were captured at various magnifications using Adobe Photoshop. The effect of angiogenic factors on sprout angiogenesis was quantified visually by determining the number and percent of EC-beads with capillary sprouts. One hundred beads (five to six random low power fields) in each of triplicate wells were counted for each experimental condition. All experiments were repeated at least three times. […]

[3] = system: EC migration toward the extracellular matrix protein vitronectin; assay: Cellular migration assay toward vitronectin (chemotaxis chamber); assay type: cell-based; settings: hormone 0.1 uM in upper chamber, vitronectin 25 ug in lower chamber
Procedure: These assays were performed using a Neuroprobe 96 well disposable chemotaxis chamber with an 8 μm pore size. This chamber allowed for quantitation of cellular migration towards a gradient of either vitronectin or osteopontin. Cultured cells were removed following a standardized method using EDTA/Trypsin (0.01%/0.025%). Following removal, the cells were washed twice and resuspended (2×10^6/ml) in EBM (Endothelial cell basal media, Clonetics Inc.). Add either vitronectin or osteopontin (33 μl) at 0.0125-100 μg/ml to the lower wells of a disposable chemotaxis chamber, and then assemble using the preframed filter. The cell suspension (45 μl) was added to a polypropylene plate containing 5 μl of test agent at different concentrations and incubated for 10 minutes at 22° C. Add 25 μl of cell/test agent suspension to the upper filter wells then incubate overnight (22 hours at 37° C.) in a humidified cell culture incubator. After the overnight incubation, non-migrated cells and excess media were gently removed using a 12 channel pipette and a cell scraper. The filters were then washed twice in PBS (no Ca^+2 or Mg^+2) and fixed with 1% formaldehyde. Membranes of migrated cells were permeated with Triton X-100 (0.2%) then washed 2-3 times with PBS. […] Chemotaxis was quantitatively determined by fluorescence detection using a Cytofluor II (530 excitation/590 emission).

platelets = assay: Collagen-induced platelet aggregation and secretion in whole blood (impedance); assay type: cell-based, human; settings: 10-100 nM
Description: Platelet aggregation and de-granulation in whole blood using Impedance Technique: The Model 560 Whole-Blood Aggregometer and the associated Aggro-Link Software from the Chrono-Log Corporation were used in this study. Two electrodes are placed in diluted blood and an electrical impulse is sent from one to the other. As the platelets aggregate around the electrodes, the Chrono-Log measures the impedance of the electrical signal in ohms of resistance.
The blood was kept on a rocker to extend the life of the platelets, and experiments were done within 5 hours of phlebotomy.
Procedure: For the control, 500 microliters of whole blood, 500 microliters of 0.9% saline, and a magnetic stir bar were mixed into a cuvette, and heated for five minutes to 37 degrees Celsius. Sub-threshold aggregation was induced with 5 microliters of 1-2 μg/ml Collagen, which the Aggregometer measured for 6-7 minutes. […] Ingerman-Wojenski C, Smith J B, Silver M J. Evaluation of electrical aggregometry: comparison with optical aggregometry, secretion of ATP, and accumulation of radiolabeled platelets. J Lab Clin Med. 1983 January; 101(1):44-52.

[4] = hormone 0.1 uM alone, pretreated FGF2 1.25 ng/ml + VEGF […], day 3

## N[C@@H](Cc1cc(I)c(Oc2cc(I)c(O)c(I)c2)c(I)c1)C(=O)O [T4, L-thyroxine]
[1]
  wound healing (outmigrating cells), Day 3: increases wound healing
[2]; 0.01-0.1 μM
  stimulation of angiogenesis: significant (P<0.01) stimulation of angiogenesis
[2]; FGF2 25 ng + VEGF 50 ng, T3 20 ng, T4 23 ng, T4-agarose 23 ng, pre-treated with FGF2 1.25 ng/ml + VEGF […]
  Mean Tube Vessel Length (mm) ± SD: 1.65 ± 0.15 mm
[2]; [4]
  Mean number of Migrated cells ± SD: 182 ± 11
  Mean vessel Length (mm) ± SD: 1.16 ± 0.21 mm
[3]
  Mean EC Migration (Fluorescence Units) + SD: 13,083 ± 276 Fluorescence Units
platelets
  enhancing platelet aggregation and secretion (de-granulation): effective
